Reference: ChEMBL document CHEMBL4715740, “Synthesis, anti-inflammatory, analgesic, COX-1/2 inhibitory activities and molecular docking studies of substituted 2-mercapto-4(3H)-quinazolinones” (Eur J Med Chem, 2016)

Assays:
[1] = molecular target: T1, Prostaglandin G/H synthase 1 (Ovis aries, UniProt P05979); assay: Inhibition of ovine COX1 assessed as reduction in PGF2alpha production using arachidonic acid as substrate preincubated with enzyme for 5 mins followed by substrate addition and measured after 2 mins by colorimetric analysis
T1 sequence (P05979 whole entry): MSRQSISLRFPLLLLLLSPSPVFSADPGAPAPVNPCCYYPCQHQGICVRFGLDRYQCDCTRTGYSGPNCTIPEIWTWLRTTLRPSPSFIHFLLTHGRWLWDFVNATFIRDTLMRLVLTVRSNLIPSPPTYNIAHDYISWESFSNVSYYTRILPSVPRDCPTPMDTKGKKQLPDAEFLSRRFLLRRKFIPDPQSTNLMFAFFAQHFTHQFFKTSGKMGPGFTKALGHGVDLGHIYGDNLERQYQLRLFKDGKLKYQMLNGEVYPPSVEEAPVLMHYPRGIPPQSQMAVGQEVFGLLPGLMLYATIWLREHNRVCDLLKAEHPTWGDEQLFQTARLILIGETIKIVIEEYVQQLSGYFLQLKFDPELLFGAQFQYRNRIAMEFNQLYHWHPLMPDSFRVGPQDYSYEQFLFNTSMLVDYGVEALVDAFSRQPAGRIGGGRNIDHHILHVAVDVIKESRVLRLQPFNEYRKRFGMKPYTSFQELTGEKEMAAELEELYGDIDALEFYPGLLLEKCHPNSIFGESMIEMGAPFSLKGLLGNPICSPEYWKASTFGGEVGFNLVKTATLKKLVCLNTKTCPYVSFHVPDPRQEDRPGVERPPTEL

Rattus norvegicus = assay: Antiinflammatory activity against Sprague-Dawley rat assessed as reduction in carragenan-induced paw edema administered ip and measured after 2 hrs by plethysmometry; format: functional
Mus musculus = assay: Analgesic activity in Swiss albino mouse administered ip and measured after 60 mins by hot plate method; format: functional; conditions: 1 h

| Structure (SMILES) | IC50 [1] | ED50 (Rattus norvegicus) | ED50 (Mus musculus) |
| --- | --- | --- | --- |
| O=c1c2ccccc2nc(S)n1CCc1ccccn1 | > 100 µM |  |  |
| CCOC(=O)CSc1nc2ccccc2c(=O)n1CCc1ccccn1 |  | > 200 mg/kg | > 200 mg/kg |
| NNC(=O)CSc1nc2ccccc2c(=O)n1CCc1ccccn1 | > 100 µM |  |  |
| CC(C)c1ccc(CSc2nc3ccccc3c(=O)n2CCc2ccccn2)cc1 |  | > 200 mg/kg | > 200 mg/kg |
| N#CCSc1nc2ccccc2c(=O)n1CCc1ccccn1 |  | > 200 mg/kg | > 200 mg/kg |
| CCn1c(S)nnc1CSc1nc2ccccc2c(=O)n1CCc1ccccn1 | > 100 µM | 91.9 mg/kg | 71.4 mg/kg |
| CCNC(=S)NNC(=O)CSc1nc2ccccc2c(=O)n1CCc1ccccn1 | > 100 µM | 70.5 mg/kg | 33.3 mg/kg |
| O=C1c2ccccc2C(=O)N1CCCSc1nc2ccccc2c(=O)n1CCc1ccccn1 |  | > 200 mg/kg | > 200 mg/kg |
| COc1ccc(C(=O)NNC(=O)CSc2nc3ccccc3c(=O)n2CCc2ccccn2)cc1 | > 100 µM | 101 mg/kg | 101 mg/kg |
| O=c1c2ccccc2nc(SCc2ccc(Cl)cc2)n1CCc1ccccn1 | > 100 µM | 65.7 mg/kg | 99.2 mg/kg |
| CCNc1nnc(CSc2nc3ccccc3c(=O)n2CCc2ccccn2)s1 |  | > 200 mg/kg | > 200 mg/kg |
| O=C(CSc1nc2ccccc2c(=O)n1CCc1ccccn1)NNC(=O)c1ccccc1 | > 100 µM | 90.1 mg/kg | 86.1 mg/kg |
| O=c1c2ccccc2nc(SCCN2CCOCC2)n1CCc1ccccn1 |  | > 200 mg/kg | > 200 mg/kg |
| CCC(=O)NNC(=O)CSc1nc2ccccc2c(=O)n1CCc1ccccn1 | > 100 µM | 83.3 mg/kg | 95.5 mg/kg |
| COc1ccc(NC(=S)NNC(=O)CSc2nc3ccccc3c(=O)n2CCc2ccccn2)cc1 |  | > 200 mg/kg | > 200 mg/kg |
| O=C(CSc1nc2ccccc2c(=O)n1CCc1ccccn1)NNC(=S)NCc1ccccc1 |  | > 200 mg/kg | 47.4 mg/kg |
| O=c1c2ccccc2nc(SCc2nnc(S)n2-c2ccccc2)n1CCc1ccccn1 |  | > 200 mg/kg | > 200 mg/kg |
| O=c1c2ccccc2nc(SCc2nnc(Nc3ccccc3)s2)n1CCc1ccccn1 |  | > 200 mg/kg | > 200 mg/kg |
| O=c1c2ccccc2nc(SCc2nnc(NCc3ccccc3)s2)n1CCc1ccccn1 |  | > 200 mg/kg | > 200 mg/kg |
| CSc1nc2ccccc2c(=O)n1CCc1ccccn1 |  | > 200 mg/kg | > 200 mg/kg |
| O=C(CSc1nc2ccccc2c(=O)n1CCc1ccccn1)NNC(=S)Nc1ccccc1 |  | > 200 mg/kg | > 200 mg/kg |
| COc1ccc(Nc2nnc(CSc3nc4ccccc4c(=O)n3CCc3ccccn3)s2)cc1 |  | > 200 mg/kg | > 200 mg/kg |
| CCSc1nc2ccccc2c(=O)n1CCc1ccccn1 | > 100 µM | 74.5 mg/kg | 105 mg/kg |
| O=C(CSc1nc2ccccc2c(=O)n1CCc1ccccn1)NNC(=O)c1ccc(Cl)cc1 |  | > 200 mg/kg | > 200 mg/kg |
| O=c1c2ccccc2nc(SCc2ccccc2)n1CCc1ccccn1 |  | > 200 mg/kg | > 200 mg/kg |
| O=c1c2ccccc2nc(SCc2nnc(S)n2Cc2ccccc2)n1CCc1ccccn1 |  | > 200 mg/kg | > 200 mg/kg |
| Cc1ccc(-c2cc(C(F)(F)F)nn2-c2ccc(S(N)(=O)=O)cc2)cc1 [CELECOXIB] |  | 84.3 mg/kg | 71.6 mg/kg |
